How the values were obtained:
human adenosine A3R = target: T1, human adenosine A3R (Homo sapiens, UniProt P0DMS8); assay: Radioligand binding at human adenosine A3 receptor vs. [3H]PSB-11; conditions: for inhibition at 1 µM: CHO cells, read-out: A3R vs. [H³]PSB-11 % Inhibition ± SEM at 1 µM; for Ki: human recombinant receptor in CHO cells, read-out: A3R vs. [H³]PSB-11 Ki ± SEM
T1 construct: expressed in transfected cells; host or cells: CHO cells
T1 sequence (P0DMS8 1-318): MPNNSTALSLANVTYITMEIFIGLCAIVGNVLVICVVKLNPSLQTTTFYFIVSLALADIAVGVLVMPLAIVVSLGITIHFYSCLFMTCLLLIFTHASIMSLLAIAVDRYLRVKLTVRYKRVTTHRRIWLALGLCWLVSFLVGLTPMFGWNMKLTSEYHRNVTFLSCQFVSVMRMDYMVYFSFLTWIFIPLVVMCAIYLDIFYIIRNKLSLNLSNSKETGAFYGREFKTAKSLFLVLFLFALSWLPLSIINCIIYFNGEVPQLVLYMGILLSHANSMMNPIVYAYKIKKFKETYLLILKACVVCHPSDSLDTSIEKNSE
Description: (§1) Affinities for adenosine receptors were evaluated in radioligand binding assays as previously described. Human adenosine receptors were stably expressed in CHO cells. The following radioligands were used: [^3H]2-chloro-N^6-cyclopentyladenosine ([^3H]CCPA) for A1R; [^3H]3-(3-hydroxypropyl)-7-methyl-8-(m-methoxystyryl)-1-propargylxanthine ([^3H]MSX-2) for A2AR; [^3H]8-(4-(4-(4-chlorophenyl)piperazine-1-sulfonyl)phenyl)-1-propylxanthine ([^3H]PSB-603) for A2BR; [^3H]phenyl-8-ethyl-4-methyl-(8R)-4,5,7,8-tetrahydro-1H-imidazo [2,1-i]purine-5-one ([^3H]PSB-11) for A3R. Initially, compounds were tested at a concentration of 1 µM. […] At least three independent experiments were performed. Data were analyzed using GraphPad PRISM version 5.0 or higher (Graph Pad, San Diego, CA, USA). Ki were calculated using the Cheng–Prusoff equation.

human adenosine A2BR = target: T2, human adenosine A2BR (Homo sapiens, UniProt P29275); assay: Radioligand binding at human adenosine A2B receptor vs. [3H]PSB-603; conditions: for inhibition at 1 µM: CHO cells, read-out: A2BR vs. [³H]PSB-603 % Inhibition ± SEM at 1 µM; for Ki: human recombinant receptor in CHO cells, read-out: A2BR vs. [³H]PSB-603 Ki ± SEM
T2 construct: expressed in transfected cells; host or cells: CHO cells
T2 sequence (P29275 1-332): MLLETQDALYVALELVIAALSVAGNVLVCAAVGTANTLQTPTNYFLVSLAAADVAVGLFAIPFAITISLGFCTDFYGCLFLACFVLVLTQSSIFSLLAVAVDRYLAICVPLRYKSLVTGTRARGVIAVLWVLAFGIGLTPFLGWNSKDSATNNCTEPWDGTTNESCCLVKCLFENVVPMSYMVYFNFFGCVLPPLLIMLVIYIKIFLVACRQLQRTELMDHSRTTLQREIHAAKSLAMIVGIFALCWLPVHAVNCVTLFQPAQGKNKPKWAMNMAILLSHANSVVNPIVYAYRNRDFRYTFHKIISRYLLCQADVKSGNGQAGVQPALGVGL
Description: as §1

human adenosine A1R = target: T3, human adenosine A1R (Homo sapiens, UniProt P30542); assay: Radioligand binding at human adenosine A1 receptor vs. [3H]CCPA; conditions: for Ki: human recombinant receptor in CHO cells, read-out: A1R vs. [³H]CCPA Ki ± SEM; for inhibition at 1 µM: CHO cells, read-out: A1R vs. [³H]CCPA % Inhibition ± SEM at 1 µM
T3 construct: expressed in transfected cells; host or cells: CHO cells
T3 sequence (P30542 1-326): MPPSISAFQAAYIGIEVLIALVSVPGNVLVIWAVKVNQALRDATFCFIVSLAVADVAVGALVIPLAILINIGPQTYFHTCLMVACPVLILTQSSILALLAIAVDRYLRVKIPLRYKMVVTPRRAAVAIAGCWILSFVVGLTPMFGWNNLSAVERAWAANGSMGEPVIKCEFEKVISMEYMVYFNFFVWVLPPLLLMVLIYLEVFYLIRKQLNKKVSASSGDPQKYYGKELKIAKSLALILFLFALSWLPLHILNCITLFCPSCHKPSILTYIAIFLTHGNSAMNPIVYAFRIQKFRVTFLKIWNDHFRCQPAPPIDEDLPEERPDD
Description: as §1

human adenosine A2AR = target: T4, human adenosine A2AR (Homo sapiens, UniProt P29274); assay: Radioligand binding at human adenosine A2A receptor vs. [3H]MSX-2; conditions: for Ki: human recombinant receptor in CHO cells, read-out: A2AR vs. [³H]MSX-2 Ki ± SEM
T4 construct: expressed in transfected cells; host or cells: CHO cells
T4 sequence (P29274 whole entry): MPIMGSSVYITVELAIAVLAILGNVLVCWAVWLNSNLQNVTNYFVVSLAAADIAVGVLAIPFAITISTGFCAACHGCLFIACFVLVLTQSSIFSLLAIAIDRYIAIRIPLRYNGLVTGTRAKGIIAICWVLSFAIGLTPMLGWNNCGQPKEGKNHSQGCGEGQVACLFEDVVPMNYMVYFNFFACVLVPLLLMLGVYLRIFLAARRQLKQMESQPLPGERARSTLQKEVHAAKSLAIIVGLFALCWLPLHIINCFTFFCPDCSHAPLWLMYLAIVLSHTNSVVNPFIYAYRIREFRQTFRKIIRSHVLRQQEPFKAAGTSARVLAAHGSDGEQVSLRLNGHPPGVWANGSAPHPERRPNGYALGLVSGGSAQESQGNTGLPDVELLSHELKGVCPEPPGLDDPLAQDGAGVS
Description: as §1

human MAO B = target: T5, human MAO B (Homo sapiens, UniProt P27338); assay: Human MAO B inhibition, fluorometric method; format: biochemical; conditions: mean of two independent experiments, read-out: % of hMAO B Inhibition at 1 µM
T5 sequence (P27338 1-520): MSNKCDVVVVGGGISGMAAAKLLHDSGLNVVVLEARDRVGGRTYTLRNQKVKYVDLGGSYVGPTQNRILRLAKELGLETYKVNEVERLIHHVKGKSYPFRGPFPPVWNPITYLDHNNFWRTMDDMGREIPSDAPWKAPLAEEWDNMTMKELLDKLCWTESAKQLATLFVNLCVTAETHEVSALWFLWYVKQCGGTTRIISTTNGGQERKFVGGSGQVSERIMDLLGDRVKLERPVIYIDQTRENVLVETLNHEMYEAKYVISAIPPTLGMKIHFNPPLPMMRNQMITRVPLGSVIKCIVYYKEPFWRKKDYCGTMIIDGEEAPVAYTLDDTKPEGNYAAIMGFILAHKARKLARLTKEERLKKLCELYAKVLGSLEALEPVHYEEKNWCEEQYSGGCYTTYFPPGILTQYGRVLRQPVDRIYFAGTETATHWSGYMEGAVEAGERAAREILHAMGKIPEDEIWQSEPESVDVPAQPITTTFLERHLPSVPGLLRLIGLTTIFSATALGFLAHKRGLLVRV
Description: The compounds were tested twice in duplicates at a concentration of 1 μM by fluorometric method as previously described. Paratyramine (200 μM) was used as a substrate for the enzyme. Safinamide (1 μM; reversible) and rasagiline (1 μM; irreversible) were used as reference inhibitors.

SMILES	inhibition at 1 µM (human adenosine A3R) [%]	Ki (human adenosine A3R) [nM]	inhibition at 1 µM (human adenosine A2BR) [%]	Ki (human adenosine A2BR) [nM]	melting point [°C]	Ki (human adenosine A1R) [nM]	Ki (human adenosine A2AR) [nM]	inhibition at 1 µM (human MAO B) [%]	inhibition at 1 µM (human adenosine A1R) [%]	A2AR vs. [³H]MSX-2 % Inhibition ± SEM at 1 µM (human adenosine A2AR; 1 µM, CHO cells) [%]
C#CCn1c(=O)c2c(nc(NCc3cccc(OC)c3)n2C)n(C)c1=O [compound 25, 8-((3-Methoxybenzyl)amino)-3,7-dimethyl-1-(prop-2-yn-1-yl)-3,7-dihydro-1H-purine-2,6-dione]	0	> 1000	35	> 1000	217 to 219	460 ± 99	225 ± 40	11		
CCCn1c(=O)c2c(nc(NCc3cccc(OC)c3)n2C)n(C)c1=O [compound 17, 8-((3-methoxybenzyl)amino)-3,7-dimethyl-1-propyl-3,7-dihydro-1H-purine-2,6-dione]	6	> 1000	20	> 1000	173 to 175	> 1000	605 ± 120	5	17	
C#CCn1c(=O)c2c(nc(NCc3ccccc3Br)n2C)n(C)c1=O [compound 20, 8-((2-Bromobenzyl)amino)-3,7-dimethyl-1-(prop-2-yn-1-yl)-3,7-dihydro-1H-purine-2,6-dione]	13	> 1000	25	> 1000	210 to 212	> 1000	137 ± 35	32	44	
CCCn1c(=O)c2c(nc(NCc3c(F)cccc3Cl)n2C)n(C)c1=O [compound 14, 8-((2-Chloro-6-fluorobenzyl)amino)-3,7-dimethyl-1-propyl-3,7-dihydro-1H-purine-2,6-dione]	18	> 1000		687 ± 147	241 to 243	> 1000	124 ± 26	9	29	
C#CCn1c(=O)c2c(nc(NCc3cccc(Cl)c3)n2C)n(C)c1=O [compound 23, 8-((3-Chlorobenzyl)amino)-3,7-dimethyl-1-(prop-2-yn-1-yl)-3,7-dihydro-1H-purine-2,6-dione]	14	> 1000	26	> 1000	234 to 236	334 ± 122	126 ± 15	8		
CCCn1c(=O)c2c(nc(NCc3ccccc3F)n2C)n(C)c1=O [compound 13, 8-((2-Fluorobenzyl)amino)-3,7-dimethyl-1-propyl-3,7-dihydro-1H-purine-2,6-dione]	6	> 1000	21	> 1000	224 to 226	> 1000	> 1000	15	32	47 ± 2
CCCn1c(=O)c2c(nc(NCc3ccc(OC)c(OC)c3)n2C)n(C)c1=O [compound 18, 8-((3,4-dimethoxybenzyl)amino)-3,7-dimethyl-1-propyl-3,7-dihydro-1H-purine-2,6-dione]	-5	> 1000	17	> 1000	200 to 201	> 1000	773 ± 127	2	7	
C#CCn1c(=O)c2c(nc(NCc3ccccc3F)n2C)n(C)c1=O [compound 21, 8-((2-Fluorobenzyl)amino)-3,7-dimethyl-1-(prop-2-yn-1-yl)-3,7-dihydro-1H-purine-2,6-dione]	21	> 1000	41	> 1000	224 to 226	353 ± 42	287 ± 90	8		

Source: publication PMC10531311, “Anti-Inflammatory Activities of 8-Benzylaminoxanthines Showing High Adenosine A2A and Dual A1/A2A Receptor Affinity” (International Journal of Molecular Sciences, 2023)
